The values below come from US20150320756A1, “TREATMENTS OF COCCIDIOSIS WITH INTRAMUSCULAR TRIAZINE COMPOSITIONS” (CEVA SANTE ANIMALE, priority 2012, published 2015).

Assay type in all cases: in vivo
A short description of data set [1]: Pharmacokinetics: serum concentrations of toltrazuril and toltrazuril sulfone in 2 day-old piglets (Example B). The method, then: (§1) Protocol • Group 1: 10 piglets 2 days old were injected with once intramuscularly dose of toltrazuril C629 (Dose=20 mg toltrazuril per kg bodyweight—equivalent to 0.4 mL/Kg bodyweight) on SD0 • Group 2: 11 piglets 2 days old were injected with once intramuscularly dose of toltrazuril C629 (Dose=40 mg toltrazuril per kg bodyweight a—equivalent to 0.8 mL/kg bodyweight) on SD0 • Group 3: 9 piglets 2 days old were dosed orally with the standard commercial formulation of toltrazuril Cevazuril® (Dose=20 mg toltrazuril per kg bodyweight—equivalent to 0.4 mL/Kg bodyweight) on SD0. • Group 4: 8 piglets, left untreated.
(§2) All four (4) groups of piglets were injected on SD0 with iron injection (Gleptosil®) at the dose rate of 1 ml per piglet. 3 days after treatment (on SD3), the piglets were orally challenged with a characterised strain of Isospora suis.
(§3) The following study parameters were used to assess the efficacy of the test products: • Local and general tolerance (for Groups 1 and 2) • Occurrence of diarrhoea and faecal consistency • Oocyst excretion • Bodyweight development • Serum concentrations of toltrazuril and its metabolite toltrazuril sulfone (e.g ponazuril) in Group 1, 2 and 3.

Data set [2] in a line: Local and general tolerance of a single intramuscular injection of toltrazuril in 3-day old piglets (Example A). Here is the method: (§4) This target animal safety and efficacy study was conducted in a farm with known history of cocciodiosis. The main objective was to study the safety and efficacy of intramuscular injection of toltrazuril in comparison to the standard oral application. • Group 1: 8 piglets 3 days old were injected by a single intramuscular dose of toltrazuril (Dose=20 mg toltrazuril per kg bodyweight equivalent to 0.4 mL/kg bodyweight) on SD0. • Group 2: 8 piglets 3 days old were injected by one intramuscular dose of toltrazuril (60 mg toltrazuril per kg bodyweight equivalent to 1.2 mL/Kg bodyweight) on SD0 • Group 3: 8 piglets 3 days old were dosed orally with the standard commercial formulation of toltrazuril Cevazuril® (Dose=20 mg toltrazuril per kg bodyweight equivalent to 0.4 mL/Kg bodyweight) on SD0 • Group 4: 12 piglets 3 days old, left untreated.
(§5) All four (4) groups of piglets were injected on SD0 with iron (Gleptosil®) at the dose rate of 1 ml per piglet.

The nature of data set [3]: Bodyweight development of piglets on a farm with known history of coccidiosis (Example A). Here is the method: as §4, §5
The subject of another data set is Isospora suis. Put plainly: Anti-coccidial efficacy in piglets orally challenged with Isospora suis (Example B). The method, then: as §1, §2, §3
A short description of data set [4]: Local and general tolerance of intramuscular toltrazuril in 2 day-old piglets (Example B). The settings on record: all tested doses (i.m. 20 and 40 mg/kg). Here is the method:
as §1, §2, §3

Where [5] appears, read: G1, G2: single i.m. 20 or 40 mg/kg on SD0, Isospora suis challenge on SD3.

Consider `Cc1cc(-n2c(=O)[nH]c(=O)n(C)c2=O)ccc1Oc1ccc(SC(F)(F)F)cc1` [toltrazuril], for which the Absorption entry in data set [1] (after intramuscular application, piglets) was “well absorbed”. Also, the “Toltrazuril sulfone (ponazuril) kinetics, oral (G3) versus intramuscular (G1 and G2)” value in data set [1] (metabolite after toltrazuril 20 mg/kg oral vs 20 or 40 mg/kg i.m.) is given as “not statistically different”. Moreover, in data set [1] (upon intramuscular injection of toltrazuril (FIGS. 4 and 5)), the “Serum level of toltrazuril sulfone” value is “rapid and sustained”. In addition, in data set [2] (piglets injected i.m. with 1.2 mL/kg bodyweight), the “Time to disappearance of local reaction post injection” value was “less than 1 week”. Further, the “Local reaction (oedema)” value in data set [2] (piglets injected i.m. with 1.2 mL/kg bodyweight (60 mg/kg)) is on record as “limited local reaction (Oedema) in some piglets”. The General tolerance result in data set [2] (single intramuscular doses up to 60 mg/kg, 3-day old piglets) is “well tolerated”. Besides, in data set [2] (single intramuscular injection, 3-day old piglets), the Pain after injection entry was “No pain”. Moreover, in data set [3] (intramuscularly treated piglets, at SD0+29 days), the “Bodyweight gain versus control non treated piglets” value is “+2 kg”. The Bodyweight development entry in data set [3] (single i.m. 20 or 60 mg/kg, 3-day old piglets) is recorded as “normal”. Besides, in the data set with Isospora suis (setting [5]), the Fecal consistency entry was “unchanged” and the Oocyst excretion entry is “No oocyst excretion was observed”. For the same molecule, in the data set with Isospora suis (G1, G2: single i.m. 20 or 40 mg/kg, infected piglets), the “Weight gain versus control animals (G4)” value is listed as “gained more weight than the control animals”. In data set [4], the Tolerance result was “well tolerated”.
